How the values were obtained:
[1] = tested on: Male Sprague-Dawley rats; assay: Chronic constriction injury model, mechanical allodynia (von Frey); assay type: in vivo, rat; details: 10 mg/kg i.v., 2 hours post-dosing, CCI rats
Description: Male Sprague-Dawley rats were used. Under pentobarbital anesthesia, the sciatic nerve was exposed at mid-thigh level (Bennett G J et al Pain. 33: 87-107, 1988). Four ligatures were loosely tied around the sciatic nerve of the left hind limb to induce enhancement of pain caused by nerve injury. Mechanical allodynia was evaluated by using a set of 8 manual von Frey monofilaments (0.4, 0.6, 1, 2, 4, 6, 8 and 15 g) 18 days after surgery and basal response was recorded.
On day 19 body weight was recorded and compounds 10 and 45 were administered by i.v. route at the dose of 10 mg/kg. 60, 120 and 180 min post dose, mechanical allodynia was tested by evaluation of the Paw Withdrawl Threshold (PWT) and % Maximum Possible Effect (MPE) was calculated according to the following formula: […]
The mechanical allodynia was tested 1 day before treatment and at 2 hours post-dosing. One-way ANOVA followed by Dunnett's test was applied for comparison between vehicle control and test compound treated groups. *p<0.05 is considered significant.

[2] = target: T1, human Adrenergic α1A Receptor (Homo sapiens, UniProt P35348); assay: Radioligand binding assay; details: read-out: percentage of control binding value (% B)
T1 construct: expressed in transfected cells; host or cells: HEK293 or CHO
Description: (§1) The objective of this study was to evaluate the in vitro effects of compounds 10 and 45 on cloned human GPCRs (G-protein coupled receptors) expressed in HEK293 or CHO cells using radioligand binding assays (compound concentration=10 μM).
(§2) Three replicates were performed for each experiment.
(§3) For each assay a concentration-response curve of the appropriate reference compound was performed in each experiment. The sample radioactivity content was measured after the addition of the scintillation cocktail Microscint 20 (PerkinElmer), by a microplate scintillation Beta-counter TopCount NXT (PerkinElmer). The atomic disintegrations per minutes evaluated with the beta counter were about 15 times higher than those found using the gamma counter. Data are expressed as percentage of control binding value (% B) and test compound inhibition was considered significant when % B was <75% at 10 μM.

[3] = target: T2, human Adrenergic α2A Receptor (Homo sapiens, UniProt P08913); assay: Radioligand binding assay; details: read-out: percentage of control binding value (% B)
T2 construct: expressed in transfected cells; host or cells: HEK293 or CHO
Description: as §1, §2, §3

[4] = target: T3, human Adrenergic β1 Receptor (Homo sapiens, UniProt P08588); assay: Radioligand binding assay; details: read-out: percentage of control binding value (% B)
T3 construct: expressed in transfected cells; host or cells: HEK293 or CHO
Description: as §1, §2, §3

[5] = target: T4, human Adrenergic β2 Receptor (Homo sapiens, UniProt P07550); assay: Radioligand binding assay; details: read-out: percentage of control binding value (% B)
T4 construct: expressed in transfected cells; host or cells: HEK293 or CHO
Description: as §1, §2, §3

[6] = target: T5, human Bradykinin B1 Receptor (Homo sapiens, UniProt P46663); assay: Radioligand binding assay; details: read-out: percentage of control binding value (% B)
T5 construct: expressed in transfected cells; host or cells: HEK293 or CHO
Description: as §1, §2, §3

[7] = target: T6, human Cannabinoid CB2 Receptor (Homo sapiens, UniProt P34972); assay: Radioligand binding assay; details: read-out: percentage of control binding value (% B)
T6 construct: expressed in transfected cells; host or cells: HEK293 or CHO
Description: as §1, §2, §3

[8] = target: T7, human Dopamine D2S Receptor (Homo sapiens, UniProt P14416); assay: Radioligand binding assay; details: read-out: percentage of control binding value (% B)
T7 construct: expressed in transfected cells; host or cells: HEK293 or CHO
Description: as §1, §2, §3

[9] = target: T8, human Dopamine D3 Receptor (Homo sapiens, UniProt P35462); assay: Radioligand binding assay; details: read-out: percentage of control binding value (% B)
T8 construct: expressed in transfected cells; host or cells: HEK293 or CHO
Description: as §1, §2, §3

[10] = target: T9, human Histamine H1 Receptor (Homo sapiens, UniProt P35367); assay: Radioligand binding assay; details: read-out: percentage of control binding value (% B)
T9 construct: expressed in transfected cells; host or cells: HEK293 or CHO
Description: as §1, §2, §3

[11] = target: T10, human Histamine H2 Receptor (Homo sapiens, UniProt P25021); assay: Radioligand binding assay; details: read-out: percentage of control binding value (% B)
T10 construct: expressed in transfected cells; host or cells: HEK293 or CHO
Description: as §1, §2, §3

[12] = target: T11, human Muscarinic M2 Receptor (Homo sapiens, UniProt P08172); assay: Radioligand binding assay; details: read-out: percentage of control binding value (% B)
T11 construct: expressed in transfected cells; host or cells: HEK293 or CHO
Description: as §1, §2, §3

[13] = target: T12, human Muscarinic M3 Receptor (Homo sapiens, UniProt P20309); assay: Radioligand binding assay; details: read-out: percentage of control binding value (% B)
T12 construct: expressed in transfected cells; host or cells: HEK293 or CHO
Description: as §1, §2, §3

[14] = target: T13, human Serotoninergic 5-HT1A Receptor (Homo sapiens, UniProt P08908); assay: Radioligand binding assay; details: read-out: percentage of control binding value (% B)
T13 construct: expressed in transfected cells; host or cells: HEK293 or CHO
Description: as §1, §2, §3

[15] = Log D; assay type: physicochemical
[16] = target: CYP 3A4 (Homo sapiens, UniProt P08684); assay: CYP inhibition; assay type: in vitro ADME
[17] = Pharmacokinetic profile in rat; assay type: in vivo; details: plasma; for half-life: iv, read-out: t1/2 i.v. rat
[18] = target: T14, TRPM8 (Homo sapiens, UniProt Q7Z2W7)
Description: (§4) Values were considered significant if the test compound mean was three or more standard deviations away from the positive control agonist mean.

[19] = target: T14, TRPM8; assay: cell-based
Description: as §4

T14 sequence (Q7Z2W7 whole entry): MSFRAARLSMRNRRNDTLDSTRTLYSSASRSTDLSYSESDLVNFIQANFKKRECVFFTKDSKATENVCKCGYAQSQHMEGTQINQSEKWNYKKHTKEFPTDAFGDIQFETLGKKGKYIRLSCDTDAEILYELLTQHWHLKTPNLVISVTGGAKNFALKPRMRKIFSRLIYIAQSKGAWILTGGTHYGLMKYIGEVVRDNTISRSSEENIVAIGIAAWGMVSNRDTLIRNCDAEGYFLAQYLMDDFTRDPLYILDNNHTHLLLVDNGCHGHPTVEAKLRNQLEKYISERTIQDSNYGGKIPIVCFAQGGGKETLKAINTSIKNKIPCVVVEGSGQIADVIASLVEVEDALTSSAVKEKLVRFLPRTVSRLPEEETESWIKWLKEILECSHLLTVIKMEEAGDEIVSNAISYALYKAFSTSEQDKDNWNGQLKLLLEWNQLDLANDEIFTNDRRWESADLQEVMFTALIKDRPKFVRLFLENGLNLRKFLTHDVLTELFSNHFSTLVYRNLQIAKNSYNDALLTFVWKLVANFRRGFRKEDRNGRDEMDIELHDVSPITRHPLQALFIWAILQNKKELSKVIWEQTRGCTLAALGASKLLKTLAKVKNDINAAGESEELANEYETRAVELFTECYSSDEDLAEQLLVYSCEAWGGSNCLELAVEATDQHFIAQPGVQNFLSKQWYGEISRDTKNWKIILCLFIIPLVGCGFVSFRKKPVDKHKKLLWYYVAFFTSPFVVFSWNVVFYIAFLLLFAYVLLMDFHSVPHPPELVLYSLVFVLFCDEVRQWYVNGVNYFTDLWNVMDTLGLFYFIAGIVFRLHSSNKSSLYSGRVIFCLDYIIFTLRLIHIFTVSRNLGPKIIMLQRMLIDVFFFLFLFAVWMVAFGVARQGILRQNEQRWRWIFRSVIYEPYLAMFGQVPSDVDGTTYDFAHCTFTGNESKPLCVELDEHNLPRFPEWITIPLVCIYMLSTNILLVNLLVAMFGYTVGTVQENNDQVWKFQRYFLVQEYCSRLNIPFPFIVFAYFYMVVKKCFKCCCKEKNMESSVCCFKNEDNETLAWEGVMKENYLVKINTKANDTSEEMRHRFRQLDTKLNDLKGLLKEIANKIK
T8 sequence (P35462 whole entry): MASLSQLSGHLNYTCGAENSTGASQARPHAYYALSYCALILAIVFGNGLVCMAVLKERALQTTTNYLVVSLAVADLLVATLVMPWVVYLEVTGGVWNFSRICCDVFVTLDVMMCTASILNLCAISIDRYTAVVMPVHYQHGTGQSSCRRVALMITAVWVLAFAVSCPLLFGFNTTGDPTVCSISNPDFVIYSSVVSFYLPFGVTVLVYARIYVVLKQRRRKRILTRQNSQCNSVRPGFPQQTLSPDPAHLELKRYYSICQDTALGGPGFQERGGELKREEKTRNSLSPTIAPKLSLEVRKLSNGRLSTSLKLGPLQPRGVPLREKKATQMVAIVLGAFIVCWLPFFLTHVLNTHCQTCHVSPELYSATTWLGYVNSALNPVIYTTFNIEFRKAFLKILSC
T4 sequence (P07550 whole entry): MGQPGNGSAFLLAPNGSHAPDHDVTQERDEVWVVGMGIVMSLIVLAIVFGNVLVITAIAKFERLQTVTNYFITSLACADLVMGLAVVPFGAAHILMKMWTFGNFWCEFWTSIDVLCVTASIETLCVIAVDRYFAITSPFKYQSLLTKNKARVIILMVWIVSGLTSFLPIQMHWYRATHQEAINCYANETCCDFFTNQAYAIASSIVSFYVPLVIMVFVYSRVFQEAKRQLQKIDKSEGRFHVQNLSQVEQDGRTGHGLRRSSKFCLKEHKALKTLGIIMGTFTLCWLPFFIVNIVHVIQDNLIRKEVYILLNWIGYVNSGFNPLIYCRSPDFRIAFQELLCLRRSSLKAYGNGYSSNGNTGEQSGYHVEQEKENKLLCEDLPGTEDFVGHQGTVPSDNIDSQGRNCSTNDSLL
T12 sequence (P20309 whole entry): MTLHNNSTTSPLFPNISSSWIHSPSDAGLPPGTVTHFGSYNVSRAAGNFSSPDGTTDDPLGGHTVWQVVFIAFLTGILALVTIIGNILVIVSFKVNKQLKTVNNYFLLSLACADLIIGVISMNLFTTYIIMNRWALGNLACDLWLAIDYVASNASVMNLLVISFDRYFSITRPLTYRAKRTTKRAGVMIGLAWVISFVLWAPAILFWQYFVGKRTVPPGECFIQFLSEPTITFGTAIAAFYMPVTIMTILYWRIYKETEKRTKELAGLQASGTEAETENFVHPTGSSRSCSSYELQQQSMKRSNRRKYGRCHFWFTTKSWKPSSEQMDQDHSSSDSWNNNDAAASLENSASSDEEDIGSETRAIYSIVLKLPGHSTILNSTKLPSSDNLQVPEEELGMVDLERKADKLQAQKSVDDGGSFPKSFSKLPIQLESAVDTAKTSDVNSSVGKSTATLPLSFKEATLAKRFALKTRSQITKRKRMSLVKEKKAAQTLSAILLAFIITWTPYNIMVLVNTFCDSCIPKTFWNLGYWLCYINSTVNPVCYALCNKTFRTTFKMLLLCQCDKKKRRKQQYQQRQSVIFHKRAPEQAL
T13 sequence (P08908 whole entry): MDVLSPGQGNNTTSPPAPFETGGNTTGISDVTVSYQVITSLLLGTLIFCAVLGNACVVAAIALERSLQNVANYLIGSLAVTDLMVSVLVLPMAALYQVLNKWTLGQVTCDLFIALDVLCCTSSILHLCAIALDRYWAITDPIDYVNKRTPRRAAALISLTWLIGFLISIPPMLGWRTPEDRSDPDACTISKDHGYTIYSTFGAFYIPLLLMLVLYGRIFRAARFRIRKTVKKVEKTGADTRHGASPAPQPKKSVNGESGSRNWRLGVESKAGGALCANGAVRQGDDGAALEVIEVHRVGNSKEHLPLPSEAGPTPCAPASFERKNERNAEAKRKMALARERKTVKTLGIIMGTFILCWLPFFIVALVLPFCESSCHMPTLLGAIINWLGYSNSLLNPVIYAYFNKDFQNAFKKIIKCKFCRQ
T1 sequence (P35348 whole entry): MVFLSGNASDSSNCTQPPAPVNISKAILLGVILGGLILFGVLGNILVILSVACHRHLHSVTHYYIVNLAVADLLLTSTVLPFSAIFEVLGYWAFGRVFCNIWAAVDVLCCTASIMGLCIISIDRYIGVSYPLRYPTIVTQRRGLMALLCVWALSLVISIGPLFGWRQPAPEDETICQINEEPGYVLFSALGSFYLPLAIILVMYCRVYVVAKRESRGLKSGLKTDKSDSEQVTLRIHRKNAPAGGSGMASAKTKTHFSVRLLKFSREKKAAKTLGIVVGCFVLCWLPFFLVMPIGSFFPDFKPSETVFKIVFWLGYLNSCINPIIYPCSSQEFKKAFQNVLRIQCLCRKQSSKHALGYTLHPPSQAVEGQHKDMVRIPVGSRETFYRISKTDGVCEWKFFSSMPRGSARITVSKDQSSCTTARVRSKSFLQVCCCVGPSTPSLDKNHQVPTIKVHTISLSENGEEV
Sequence of CYP 3A4 (P08684 whole entry): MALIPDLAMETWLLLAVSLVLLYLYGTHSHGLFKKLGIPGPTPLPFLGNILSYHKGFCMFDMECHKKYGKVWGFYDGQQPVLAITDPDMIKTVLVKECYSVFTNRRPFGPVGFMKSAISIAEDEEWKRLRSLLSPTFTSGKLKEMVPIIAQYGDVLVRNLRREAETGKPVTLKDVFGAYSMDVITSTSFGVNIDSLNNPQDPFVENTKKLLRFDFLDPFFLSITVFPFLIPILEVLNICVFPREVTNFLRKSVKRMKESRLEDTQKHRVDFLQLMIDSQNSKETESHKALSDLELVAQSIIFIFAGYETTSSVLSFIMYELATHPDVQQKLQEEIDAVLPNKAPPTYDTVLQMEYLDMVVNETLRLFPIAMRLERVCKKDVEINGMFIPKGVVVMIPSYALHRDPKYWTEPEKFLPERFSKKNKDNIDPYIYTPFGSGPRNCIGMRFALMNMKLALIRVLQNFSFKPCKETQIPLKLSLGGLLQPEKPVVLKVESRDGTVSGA
T11 sequence (P08172 whole entry): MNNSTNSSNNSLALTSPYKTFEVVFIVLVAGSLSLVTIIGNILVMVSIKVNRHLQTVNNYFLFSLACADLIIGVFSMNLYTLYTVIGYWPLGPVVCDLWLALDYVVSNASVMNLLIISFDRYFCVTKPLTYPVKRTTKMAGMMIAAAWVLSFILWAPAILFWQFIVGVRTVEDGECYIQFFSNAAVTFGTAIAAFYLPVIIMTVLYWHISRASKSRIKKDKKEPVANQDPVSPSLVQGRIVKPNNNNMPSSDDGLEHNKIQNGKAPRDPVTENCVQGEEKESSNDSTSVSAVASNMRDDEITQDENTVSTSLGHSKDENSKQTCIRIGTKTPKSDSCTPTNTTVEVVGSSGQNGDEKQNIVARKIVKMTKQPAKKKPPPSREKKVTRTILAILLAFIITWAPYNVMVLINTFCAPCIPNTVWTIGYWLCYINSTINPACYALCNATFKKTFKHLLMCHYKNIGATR
T2 sequence (P08913 whole entry): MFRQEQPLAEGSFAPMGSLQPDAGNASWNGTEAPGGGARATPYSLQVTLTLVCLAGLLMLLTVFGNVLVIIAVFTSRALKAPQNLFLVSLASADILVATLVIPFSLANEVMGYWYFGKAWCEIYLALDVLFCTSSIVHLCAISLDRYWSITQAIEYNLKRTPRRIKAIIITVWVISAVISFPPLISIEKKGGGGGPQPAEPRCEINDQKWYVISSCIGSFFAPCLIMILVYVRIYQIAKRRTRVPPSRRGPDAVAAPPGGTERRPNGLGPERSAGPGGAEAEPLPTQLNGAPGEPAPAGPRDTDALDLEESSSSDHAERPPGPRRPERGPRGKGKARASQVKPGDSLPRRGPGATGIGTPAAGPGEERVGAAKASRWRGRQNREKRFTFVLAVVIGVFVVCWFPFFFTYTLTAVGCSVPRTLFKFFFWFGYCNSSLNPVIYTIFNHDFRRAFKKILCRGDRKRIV

| SMILES | anti-allodynic activity, mechanical allodynia (PWT, % MPE) [1] | remaining activity at 10 µM [2] | remaining activity at 10 µM [3] | remaining activity at 10 µM [4] | remaining activity at 10 µM [5] | remaining activity at 10 µM [6] | remaining activity at 10 µM [7] | remaining activity at 10 µM [8] | remaining activity at 10 µM [9] | remaining activity at 10 µM [10] | remaining activity at 10 µM [11] | remaining activity at 10 µM [12] | remaining activity at 10 µM [13] | remaining activity at 10 µM [14] | logD [15] | CYP (% inhibition) @10 μM, 3A4 [16] | half-life [17] | antagonist activity in calcium influx assay [18] | IC50 [19] | other results |
| --- | --- | --- | --- | --- | --- | --- | --- | --- | --- | --- | --- | --- | --- | --- | --- | --- | --- | --- | --- | --- |
| CCOC(=O)c1sc(-c2cccc(F)c2)nc1O [Compound 10, ethyl 2-(3-fluorophenyl)-4-hydroxy-1,3-thiazole-5-carboxylate] | significant anti-allodynic activity | 100% | 100% | 82% | 88% | 91% | 102% | 100% | 87% | 99.3% | 90% | 90% | 98% | 100% | 1.59 | <5% | 0.833 h | confirmed the antagonist activity | 0.2 nM | log D values [15]: low |
| O=C(O)c1sc(-c2ccc(Cl)cc2)nc1OCc1ccc(Cl)cc1 [Compound 45, 4-[(4-chlorobenzyl)oxy]-2-(4-chlorophenyl)-1,3-thiazole-5-carboxylic acid] | significant anti-allodynic activity | 96% | 100% | 90.5% | 93% | 99.6% | 86.7% | 100% | 97.2% | 100% | 93.2% | 96% | 95% | 100% | 2.7 | <5% | 4 h | confirmed the antagonist activity | 1000 nM | bioavailability ([17]; oral bioavailability): 60% |

From US9585875B2, “TRPM8 antagonists” (Dompé S.P.A., priority 2011, dated 2017)
